Measurements from ChEMBL document CHEMBL1151675, “Novel marine di-Z-carotenoids: cucumariaxanthins A, B, and C from the sea cucumber Cucumaria japonica” (J Nat Prod, 1996).

Assays:
Type in all cases: cell-based
Settings in all cases: read-out: Activity
[1] = Cytotoxicity against human Raji cells assessed as cell viability at 1000 molar ratio
[2] = Cytotoxicity against human Raji cells assessed as cell viability at 10 molar ratio
[3] = Cytotoxicity against human Raji cells assessed as cell viability at 100 molar ratio
[4] = Cytotoxicity against human Raji cells assessed as cell viability at 500 molar ratio

Structure (SMILES)	viability at 1000 molar ratio [1]	viability at 10 molar ratio [2]	viability at 100 molar ratio [3]	viability at 500 molar ratio [4]
CC(=C/C=C/C(C)=C/C=C/C=C(C)/C=C/C=C(C)\C=C\[C@H]1[C@H](C)C(=O)CCC1(C)C)/C=C/[C@H]1[C@H](C)[C@@H](O)CCC1(C)C	70%	> 80%	> 80%	> 80%
CC(=C/C=C/C(C)=C/C=C/C=C(C)/C=C/C=C(C)\C=C\[C@H]1[C@H](C)[C@@H](O)CCC1(C)C)/C=C/[C@H]1[C@H](C)[C@@H](O)CCC1(C)C	70%	> 80%	> 80%	70%
CC1=C(/C=C/C(C)=C/C=C/C(C)=C/C=C/C=C(C)/C=C/C=C(C)/C=C/C2=C(C)CCCC2(C)C)C(C)(C)CCC1 [BETA CAROTENE]	70%	> 80%	> 80%	> 80%
CC(=C/C=C/C(C)=C/C=C/C=C(C)/C=C/C=C(C)\C=C\[C@H]1[C@H](C)C(=O)CCC1(C)C)/C=C/[C@H]1[C@H](C)C(=O)CCC1(C)C [CUCUMARIAXANTHIN A]	70%	> 80%	> 80%	> 80%
